Measurements reported in patent publication US9403873B2, “Peptides targeting receptor activator of nuclear factor-κB (RANK) and their applications” (UNIVERSITE DE NANTES, priority 2011, dated 2016).
Ends that are not written are not given here. (PEG)5 = linear (PEG)5 polyethylene glycol chain at N-terminal amino acid

Legend:
hRANK = target: T1, hRANK (Homo sapiens, UniProt Q9Y6Q6); assay: Surface plasmon resonance (Biacore) binding to immobilized RANK-Fc; details: SPR, 1:1 Langmuir model
T1 construct: For NMR experiments with soluble RANK receptor-Fc (R&D Systems); purchased R&D Systems
T1 sequence (Q9Y6Q6 30-212 limits assumed): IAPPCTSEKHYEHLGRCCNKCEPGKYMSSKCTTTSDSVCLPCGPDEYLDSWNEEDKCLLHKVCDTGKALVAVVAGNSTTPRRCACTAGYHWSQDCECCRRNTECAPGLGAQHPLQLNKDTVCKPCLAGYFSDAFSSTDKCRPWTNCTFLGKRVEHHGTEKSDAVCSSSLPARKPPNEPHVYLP
Description: Biosensor experiments were carried out on a BIAcore 3000 instrument (BIAcore) as published previously (Baud′Huin et al. 2009). Recombinant purified RANKL (2 μg/mL in 5 mM maleate, pH 5.75) or RANK-Fc carrier-free (5 μg/mL in sodium acetate buffer, pH 5.0) were covalently immobilized to the dextran matrix of a CM5 sensor chip (BIAcore) at a flow rate of 5 μL/min. Immobilization levels ranging from 400 to 3000 Response Units (RU) for RANKL or 5000 RU for RANK were obtained. Binding assays were performed at 25° C. in 10 mM Hepes buffer, pH 7.4. The association phase was 180 seconds followed by a dissociation phase in the same buffer. Polypeptides binding studies to RANK or RANKL were determined using single cycle kinetics, starting with 100 μM of the polypeptide of interest followed by 2-fold serial dilutions (ranging from 100 to 0.78 μM). The sensorgrams were fitted to calculate the equilibrium-dissociation constants using the Langmuir 1:1 model with BiaEval 4.1 software (BIAcore). RANK-Fc CF, RANKL and OPG carrier-free were obtained from R&D Systems (Minneapolis, Minn., USA).

[1] = system: ovariectomized C57BL/6 mice; assay: Ovariectomy-induced bone loss in mice, micro-CT of tibiae and L4 vertebrae; assay type: in vivo, mouse; details: 35 days
Description: Eight-week-old ovariectomized (OVX) female C57BL6 and non-ovariectomized control mice were purchased from Janvier (Le Genest Saint Ilsle, France). Mice were housed under pathogen-free conditions at the Experimental Therapy Unit (Faculty of Medicine, University of Nantes, France), and animal care and experimental protocols were approved by the French Ministry of Research and were done in accordance with the institutional guidelines of the French Ethical Committee and under the supervision of authorized investigators. After recovery from OVX surgery for 7 days and acclimation, the mice were randomly divided into treatment groups receiving daily subcutaneous injections of a peptide and a control group receiving daily injections of the vehicle (PBS) only. Non-ovariectomized or sham-operated mice were included in the studies as healthy controls. Three experimental protocols were established. Protocol 1: Ovariectomized mice received daily s.c. injections of 10 mg/kg body weight Pep8 (Pep8, n=8) or vehicle only (OVX, n=8). Non-ovariectomized (NOV, n=8) mice served as normal controls. Protocol 2: Ovariectomized mice were randomly divided into four groups (n=8), receiving daily treatments with pegylated Pep8 (Pep8-NPEG5) at 10 mg/kg or 2.5 mg/kg, or unpegylated Pep8 at a dose of 10 mg/kg/d, or the vehicle only. Sham-operated mice (n=5) served as healthy controls. Protocol 3: Ovariectomized mice receiving daily treatments with pegylated Pep8 (Pep8-NPEG8) at 10 mg/kg or 2.5 mg/kg, as described before, or unpegylated Pep8 at a lower dose of 2.5 mg/kg/d, or the vehicle only. Sham-operated mice (n=8) served as healthy controls.
During the experimental period, the body weight of the mice was monitored. […] After treatment for five weeks, mice were anesthetized with isoflurane (2%, 1 L/min) and sacrificed by cervical dislocation. Lumbar vertebrae and tibiae were collected for micro-CT analysis and stored at 4° C. in 4% paraformaldehyde until further analysis. Additionally, internal organs (heart, liver, lungs, kidneys, spleen, intestines and thymus) of some mice (n=3 per group) were harvested and stored for toxicity screening.
Analysis of architectural variables of tibiae and vertebrae of mice was performed using the high-resolution X-ray micro-CT system for small animal imaging SkyScan-1072 (SkyScan, Belgium). After scanning, the image data were transferred to a workstation and the proximal tibiae and the fourth lumbar vertebrae (L4) were rendered for 3-D display and calculation of the structural indices (Parfitt et al. 1987) using the SkyScan analysis system (CT-analyser, CT-volume, SkyScan). For trabecular bone parameters in tibiae, transverse CT slices were obtained in the region of interest in the axial direction from the trabecular bone ca. 0.1 mm below the growth plate to the mid-femur. Contours were defined and drawn close to the cortical bone. The trabecular bone was then removed and analyzed separately. Fifty slices (1 mm) at approximately […] distal to the growth plate of the proximal ends of the tibiae were used for analysis. […] The threshold level for the measurements was set at 55 for the analyses. The analysis of the specimens involved the following bone measurements: bone volume fraction (BV/TV, %), trabecular number (TbN), trabecular thickness (TbTh) and trabecular spacing (TbSp).

## ELASYIIITQLG [Pep1, ELASYIIITQLG]
hRANK; 25° C., pH 7.4, read-out: binding affinity (Kd) to hRANK
  Kd: 20.6 µM
hRANK; read-out: association rate constant (kon)
  kon: 13.5 M⁻¹ s⁻¹
hRANK; read-out: dissociation rate constant (koff)
  koff: 0.000278 s⁻¹

## Pep8-NPEG5: Pep8 carrying a linear (PEG)5 polyethylene glycol chain at the N-terminal amino acid ({(PEG)5}-NVLKLCSGE)
[1]; 2.5 mg/kg/d s.c.
  protection against OVX-induced trabecular bone loss (μCT, tibiae): almost as effective
[1]; 2.5 mg/kg/d, vs vehicle
  trabecular BV/TV and TbN, tibiae: significantly increasing
[1]; 10 mg/kg/d s.c.
  protection against OVX-induced trabecular bone loss (μCT): attenuated bone loss in OVX mice to the same extent as treatment with the unpegylated peptide
